Here are results for 1 molecule from paper PMC3380923, “Structure Analysis of Entamoeba histolytica DNMT2 (EhMeth)” (PLoS ONE, 2012).

The experiment has as its target T1, EhMeth (Entamoeba histolytica, UniProt Q6Q386).
T1 construct: gene meth; GST fusion from pGEX6-P3 in E. coli BL21(DE3), GST cleaved off with PreScission protease; one molecule per asymmetric unit
T1 sequence (Q6Q386 1-322): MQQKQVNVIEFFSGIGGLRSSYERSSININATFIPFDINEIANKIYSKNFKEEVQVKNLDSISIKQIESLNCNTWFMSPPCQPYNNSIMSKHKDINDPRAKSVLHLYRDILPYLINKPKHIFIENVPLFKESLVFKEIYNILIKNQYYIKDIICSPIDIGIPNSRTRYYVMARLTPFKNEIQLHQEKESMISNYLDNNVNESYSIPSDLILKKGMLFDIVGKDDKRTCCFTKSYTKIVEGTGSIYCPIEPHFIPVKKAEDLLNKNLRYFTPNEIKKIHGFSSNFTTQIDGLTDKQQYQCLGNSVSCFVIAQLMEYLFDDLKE
The experiment is described as follows: X-ray crystal structure, […] Å. The conditions noted are these: co-crystallised with 150x molar excess AdoHcy, pH 6.5, 20 °C; cofactor-binding pocket.

On to `Nc1ncnc2c1ncn2[C@@H]1O[C@H](CSCC[C@H](N)C(=O)O)[C@@H](O)[C@H]1O` [AdoHcy], for which the “X-ray crystal structure, 2.15 Å” value was “the crystal structure of the binary complex comprising EhMeth and AdoHcy is presented”.
